Legend:
[1] = tested on: MCF-7 (breast adenocarcinoma); assay: MTT anti-proliferative assay, MCF-7; assay type: cell-based; conditions: Homo sapiens, MCF7, 48 h, 50% growth inhibition
Procedure: (§1) Each in vitro experiment was performed at least in triplicate, and the standard deviation of absorbance was less than 10% of the mean. For the in vitro assays, a stock solution (1% DMSO in the appropriate buffer with the tested compound diluted under sonication) was prepared from which several dilutions were made with the appropriate buffer.
(§2) Human cell lines were obtained from the Institute of Cytology, Russian Academy of Sciences. […] Cellular sensitivities to clofarabine and its lipid derivatives were measured with the MTT assay. Cells were plated in triplicate in 96-well plates (10^5 cells/well for suspended cell cultures and 5 × 10^3 cells/well for monolayer cultures); on the same day (suspended cell cultures) or on the following day (monolayer cultures), compounds were added at the appropriate dilutions. Plates were incubated under standard conditions for 48 h. Thereafter, 10 μL of MTT (Sigma) in phosphate-buffered saline (5 mg/mL) was added. The plates were incubated for an additional 4 h, and 150 μL of dimethyl sulfoxide (DMSO) was added to dissolve the formazan crystals. The optical density was read on a HALO MPR-95 Microplate Reader (Dynamica Scientific Ltd., Australia) at 570 nm. The antiproliferative effects were determined as degrees of inhibition of tumor cells (%).

PDGFRb = target: T1, PDGFRb (Homo sapiens, UniProt P09619); assay: ADP-Glo kinase inhibitory assay, PDGFRb; assay type: biochemical; conditions: read-out: % Inhibition at 10 nM, PDGFRb
T1 construct: purchased Promega
Procedure: (§3) We investigated the kinase selectivity of targeted compounds against eight receptor tyrosine kinases including EGFR (epidermal growth factor receptor), HER-2 and HER4 (human epidermal growth factor receptor), IGF1R (insulin like growth factor 1 receptor), InsR (gene insulin receptor), KDR (kinase insert domain receptor), and PDGFRa and PDGFRb (platelet-derived growth factor receptors). The assay was performed using the Kinase-Glo Plus luminescence kinase assay kit (TK-1+ADP-Glo™, Promega, San Diego, CA, USA). It measures kinase activity by quantitating the amount of ATP remaining in solution following a kinase reaction.
(§4) The assay was performed using a Kinase Selectivity Profiling System (TK-1+ADP-Glo™ Assay and TK-2+ADP-Glo™ Assay, Promega), where the kinase activity was measured by quantifying the amount of ADP produced during a kinase reaction. The assay is performed in two steps; firstly, after the kinase reaction, an equal volume of ADP-Glo™ Reagent is added to terminate the kinase reaction and deplete the remaining ATP. Secondly, the Kinase Detection Reagent is added to simultaneously convert ADP to ATP and allow the newly synthesized ATP to be measured using a luciferase/luciferin reaction. The luminescent signal generated is proportional to the ADP concentration produced and is correlated with kinase activity. Our compounds were diluted with kinase buffer (5% DMSO), and 1 μL of the dilution was added to a 5-μL reaction so that the final concentration of DMSO was 1% in all of reactions. All of the enzymatic reactions were conducted at 23 °C for 60 min. The 5-μL reaction mixture contained 1µL of the compound solution, 2µL of the enzyme solution, and 2 µL of kinase substrate. After the enzymatic reaction, 5 µL of ADP-Glo™ Reagent (Promega, USA) was added to each reaction, and the plate was incubated for 40 min at 23 °C. Then, 10 µL of Kinase Detection Reagent (Promega, USA) was added to each reaction, and the plate was incubated for 30 min at 23 °C. Luminescence signal was measured using an Infinite M 200 plate reader (Tecan, Switzerland).
(§5) Kinase activity assays were performed in duplicate at each concentration. The luminescence data were analyzed using the computer software, Magellan™. The difference between luminescence intensities in the absence of Kinase (Lut) and in the presence of Kinase (Luc) was defined as 100% activity (Lut − Luc).

A549 (lung carcinoma) = assay: MTT anti-proliferative assay, A-549; assay type: cell-based; conditions: Homo sapiens, 48 h, 50% growth inhibition
Procedure: as §1, §2

InsR = target: T2, InsR (Homo sapiens, UniProt P06213); assay: ADP-Glo kinase inhibitory assay, InsR; assay type: biochemical; conditions: for inhibition at 0.01 µM: read-out: % Inhibition at 10 nM, InsR; for selectivity for the gene insulin receptor, in words: 10 nM, panel of eight receptor tyrosine kinases
T2 construct: purchased Promega
T2 sequence (P06213 28-1382): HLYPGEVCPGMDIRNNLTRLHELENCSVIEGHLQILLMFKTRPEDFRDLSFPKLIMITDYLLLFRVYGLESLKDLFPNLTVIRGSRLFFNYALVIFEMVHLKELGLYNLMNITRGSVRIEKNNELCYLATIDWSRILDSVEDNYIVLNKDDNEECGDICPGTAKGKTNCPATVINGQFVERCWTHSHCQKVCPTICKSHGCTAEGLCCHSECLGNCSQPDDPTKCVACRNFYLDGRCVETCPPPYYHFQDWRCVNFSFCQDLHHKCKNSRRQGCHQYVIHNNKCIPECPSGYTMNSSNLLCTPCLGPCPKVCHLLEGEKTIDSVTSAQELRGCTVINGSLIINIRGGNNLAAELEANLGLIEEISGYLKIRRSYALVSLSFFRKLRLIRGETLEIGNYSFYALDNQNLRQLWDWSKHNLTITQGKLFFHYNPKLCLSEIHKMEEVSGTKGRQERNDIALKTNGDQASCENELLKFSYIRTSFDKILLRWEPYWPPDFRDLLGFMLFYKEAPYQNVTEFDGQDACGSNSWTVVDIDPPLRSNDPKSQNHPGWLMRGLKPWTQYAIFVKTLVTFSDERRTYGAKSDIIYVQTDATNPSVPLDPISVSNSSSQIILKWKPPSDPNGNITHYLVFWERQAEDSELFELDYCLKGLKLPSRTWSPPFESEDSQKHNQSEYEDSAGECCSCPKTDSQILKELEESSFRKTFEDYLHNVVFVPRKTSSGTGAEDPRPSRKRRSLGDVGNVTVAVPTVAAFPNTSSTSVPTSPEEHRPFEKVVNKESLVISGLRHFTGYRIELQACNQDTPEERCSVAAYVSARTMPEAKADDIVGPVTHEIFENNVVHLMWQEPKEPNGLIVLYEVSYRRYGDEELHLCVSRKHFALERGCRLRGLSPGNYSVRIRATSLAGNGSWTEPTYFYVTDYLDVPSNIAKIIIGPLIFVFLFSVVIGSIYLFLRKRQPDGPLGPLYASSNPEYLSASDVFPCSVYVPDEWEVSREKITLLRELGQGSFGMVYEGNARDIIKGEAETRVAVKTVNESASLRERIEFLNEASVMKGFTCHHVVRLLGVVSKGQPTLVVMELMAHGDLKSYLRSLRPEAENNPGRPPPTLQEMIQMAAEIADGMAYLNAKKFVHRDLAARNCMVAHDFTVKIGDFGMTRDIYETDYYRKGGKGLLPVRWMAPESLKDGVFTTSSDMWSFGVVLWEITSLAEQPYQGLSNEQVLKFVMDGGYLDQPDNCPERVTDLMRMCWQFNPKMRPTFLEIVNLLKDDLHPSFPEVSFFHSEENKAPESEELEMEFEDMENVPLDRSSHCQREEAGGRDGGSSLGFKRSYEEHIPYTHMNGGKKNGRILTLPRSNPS
Procedure: as §3, §4, §5

[2] = tested on: K-562 (chronic myelogenous leukemia); assay: MTT anti-proliferative assay, K-562; assay type: cell-based; conditions: Homo sapiens, K562, 48 h, 50% growth inhibition
Procedure: as §1, §2

HER-2 = target: T3, HER-2 (Homo sapiens, UniProt P04626); assay: ADP-Glo kinase inhibitory assay, HER-2; assay type: biochemical; conditions: read-out: % Inhibition at 10 nM, HER-2
T3 construct: purchased Promega
T3 sequence (P04626 23-1255): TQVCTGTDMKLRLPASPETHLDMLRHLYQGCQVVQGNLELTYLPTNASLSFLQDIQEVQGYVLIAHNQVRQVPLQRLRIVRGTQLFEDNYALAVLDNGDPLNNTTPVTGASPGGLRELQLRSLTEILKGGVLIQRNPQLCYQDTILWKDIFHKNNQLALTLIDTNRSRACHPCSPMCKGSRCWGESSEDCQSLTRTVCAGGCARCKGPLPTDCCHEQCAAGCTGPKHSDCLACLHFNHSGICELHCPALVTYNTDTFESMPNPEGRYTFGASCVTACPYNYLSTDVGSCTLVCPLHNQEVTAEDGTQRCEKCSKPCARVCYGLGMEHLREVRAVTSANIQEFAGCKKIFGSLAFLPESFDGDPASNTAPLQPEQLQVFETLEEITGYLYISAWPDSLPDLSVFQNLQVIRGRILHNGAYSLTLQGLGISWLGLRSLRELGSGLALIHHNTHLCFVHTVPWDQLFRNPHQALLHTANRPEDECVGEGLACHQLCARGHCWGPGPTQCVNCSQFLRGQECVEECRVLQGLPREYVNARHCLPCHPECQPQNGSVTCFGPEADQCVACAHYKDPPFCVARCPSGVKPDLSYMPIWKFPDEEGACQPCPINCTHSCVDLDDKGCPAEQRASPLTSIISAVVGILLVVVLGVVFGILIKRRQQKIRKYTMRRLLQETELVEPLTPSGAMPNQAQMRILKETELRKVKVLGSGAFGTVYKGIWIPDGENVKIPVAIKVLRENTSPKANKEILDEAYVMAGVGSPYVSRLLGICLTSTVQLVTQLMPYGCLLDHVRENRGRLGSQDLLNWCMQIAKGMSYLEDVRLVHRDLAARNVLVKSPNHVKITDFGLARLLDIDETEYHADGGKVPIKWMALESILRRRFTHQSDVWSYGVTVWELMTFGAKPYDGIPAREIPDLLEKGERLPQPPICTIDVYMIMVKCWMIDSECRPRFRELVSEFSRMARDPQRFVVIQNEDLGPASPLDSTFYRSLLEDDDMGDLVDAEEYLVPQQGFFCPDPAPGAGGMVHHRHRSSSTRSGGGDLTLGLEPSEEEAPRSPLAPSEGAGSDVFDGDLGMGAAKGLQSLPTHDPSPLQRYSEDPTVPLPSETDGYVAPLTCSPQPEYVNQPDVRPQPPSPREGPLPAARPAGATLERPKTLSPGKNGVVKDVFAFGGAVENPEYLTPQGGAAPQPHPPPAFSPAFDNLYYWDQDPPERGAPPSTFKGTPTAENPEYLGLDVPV
Procedure: as §3, §4, §5

[3] = tested on: HL-60 (promyelocytic leukemia); assay: MTT anti-proliferative assay, HL-60; assay type: cell-based, human; conditions: 50% growth inhibition
Procedure: as §1, §2

HeLa (cervix carcinoma) = assay: MTT anti-proliferative assay, HeLa; assay type: cell-based; conditions: Homo sapiens, 48 h, 50% growth inhibition
Procedure: as §1, §2

HER-4 = target: T4, HER-4 (Homo sapiens, UniProt Q15303); assay: ADP-Glo kinase inhibitory assay, HER-4; assay type: biochemical; conditions: for inhibitory activity in relation to HER-4, in words: 10 nM, compared with imatinib; for inhibition at 0.01 µM: read-out: % Inhibition at 10 nM, HER-4
T4 construct: purchased Promega
Procedure: as §3, §4, §5

[4] = tested on: OKP-GS (carcinoma of the kidney); assay: MTT anti-proliferative assay, OKP-GS; assay type: cell-based; conditions: Homo sapiens, 48 h, 50% growth inhibition
Procedure: as §1, §2

EGFR = target: T5, EGFR (Homo sapiens, UniProt P00533); assay: ADP-Glo kinase inhibitory assay, EGFR; assay type: biochemical; conditions: read-out: % Inhibition at 10 nM, EGFR
T5 construct: purchased Promega
T5 sequence (P00533 25-1210): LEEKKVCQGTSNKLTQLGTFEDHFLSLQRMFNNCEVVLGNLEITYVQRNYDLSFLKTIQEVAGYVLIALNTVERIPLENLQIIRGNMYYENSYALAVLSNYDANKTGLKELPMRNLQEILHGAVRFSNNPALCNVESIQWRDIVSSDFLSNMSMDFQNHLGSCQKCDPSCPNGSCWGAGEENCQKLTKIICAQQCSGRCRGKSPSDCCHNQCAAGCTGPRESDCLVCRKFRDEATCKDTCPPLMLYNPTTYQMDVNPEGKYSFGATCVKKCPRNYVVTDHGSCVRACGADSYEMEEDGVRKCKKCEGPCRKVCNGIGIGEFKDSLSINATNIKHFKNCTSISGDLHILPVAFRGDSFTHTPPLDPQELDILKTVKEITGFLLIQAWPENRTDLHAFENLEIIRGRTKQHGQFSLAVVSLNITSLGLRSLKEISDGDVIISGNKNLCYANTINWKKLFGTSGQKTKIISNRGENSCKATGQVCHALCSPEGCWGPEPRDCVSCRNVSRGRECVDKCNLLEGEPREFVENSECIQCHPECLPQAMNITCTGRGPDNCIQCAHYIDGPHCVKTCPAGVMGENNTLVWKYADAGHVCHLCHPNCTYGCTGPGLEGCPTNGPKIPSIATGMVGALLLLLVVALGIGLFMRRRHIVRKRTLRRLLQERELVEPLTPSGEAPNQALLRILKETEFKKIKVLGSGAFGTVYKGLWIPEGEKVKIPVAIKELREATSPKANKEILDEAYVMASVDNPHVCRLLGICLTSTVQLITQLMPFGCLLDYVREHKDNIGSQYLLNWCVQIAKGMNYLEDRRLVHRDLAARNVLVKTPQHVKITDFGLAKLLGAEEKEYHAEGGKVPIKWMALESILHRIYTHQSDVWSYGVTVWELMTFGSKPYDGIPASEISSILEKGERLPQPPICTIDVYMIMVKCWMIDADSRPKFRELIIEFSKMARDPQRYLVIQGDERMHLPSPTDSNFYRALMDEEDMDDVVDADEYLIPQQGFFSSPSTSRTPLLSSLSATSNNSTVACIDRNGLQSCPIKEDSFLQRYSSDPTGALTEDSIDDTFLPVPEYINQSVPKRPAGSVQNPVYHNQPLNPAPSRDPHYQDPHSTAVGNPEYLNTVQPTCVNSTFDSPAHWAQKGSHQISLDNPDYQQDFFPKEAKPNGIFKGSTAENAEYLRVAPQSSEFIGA
Procedure: as §3, §4, §5

KDR (VEGFR2) = target: T6, KDR (VEGFR2) (Homo sapiens, UniProt P35968); assay: ADP-Glo kinase inhibitory assay, KDR; assay type: biochemical; conditions: 10 nM
T6 construct: purchased Promega
T6 sequence (P35968 20-1356): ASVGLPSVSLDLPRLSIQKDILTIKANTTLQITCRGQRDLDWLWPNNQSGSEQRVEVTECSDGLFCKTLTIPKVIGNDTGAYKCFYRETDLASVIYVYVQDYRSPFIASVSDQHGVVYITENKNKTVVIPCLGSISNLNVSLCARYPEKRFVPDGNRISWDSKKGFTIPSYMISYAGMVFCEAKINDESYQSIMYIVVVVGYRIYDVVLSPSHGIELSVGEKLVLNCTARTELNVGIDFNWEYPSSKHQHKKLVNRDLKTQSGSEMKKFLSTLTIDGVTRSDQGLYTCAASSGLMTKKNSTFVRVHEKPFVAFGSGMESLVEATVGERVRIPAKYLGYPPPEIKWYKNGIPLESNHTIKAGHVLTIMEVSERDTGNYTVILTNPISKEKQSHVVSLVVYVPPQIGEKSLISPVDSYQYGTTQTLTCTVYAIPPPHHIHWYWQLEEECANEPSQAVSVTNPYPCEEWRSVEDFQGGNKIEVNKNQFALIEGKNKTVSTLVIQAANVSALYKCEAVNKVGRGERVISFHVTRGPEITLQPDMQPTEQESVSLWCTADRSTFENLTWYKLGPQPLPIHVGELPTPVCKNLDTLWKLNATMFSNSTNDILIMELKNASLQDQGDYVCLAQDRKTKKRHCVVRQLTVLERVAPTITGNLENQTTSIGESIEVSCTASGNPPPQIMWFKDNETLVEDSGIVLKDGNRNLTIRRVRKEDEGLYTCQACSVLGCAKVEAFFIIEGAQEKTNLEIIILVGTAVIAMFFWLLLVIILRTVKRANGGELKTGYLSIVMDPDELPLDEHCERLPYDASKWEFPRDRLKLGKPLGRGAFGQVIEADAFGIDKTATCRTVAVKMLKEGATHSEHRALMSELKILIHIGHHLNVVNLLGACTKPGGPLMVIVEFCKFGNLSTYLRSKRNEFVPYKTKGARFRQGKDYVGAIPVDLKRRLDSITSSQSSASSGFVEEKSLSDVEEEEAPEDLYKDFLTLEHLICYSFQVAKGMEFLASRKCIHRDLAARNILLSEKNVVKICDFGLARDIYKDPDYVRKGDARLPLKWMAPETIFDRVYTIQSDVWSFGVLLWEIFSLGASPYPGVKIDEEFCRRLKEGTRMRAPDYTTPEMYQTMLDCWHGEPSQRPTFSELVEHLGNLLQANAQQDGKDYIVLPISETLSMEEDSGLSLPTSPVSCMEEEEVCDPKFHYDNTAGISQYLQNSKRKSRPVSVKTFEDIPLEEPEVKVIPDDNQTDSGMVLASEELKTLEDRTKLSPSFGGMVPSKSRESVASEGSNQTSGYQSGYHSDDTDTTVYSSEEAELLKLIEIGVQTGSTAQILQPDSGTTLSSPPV
Procedure: as §3
Vascular endothelial growth factor receptor 2 (VEGFR2), also called kinase insert domain receptor (KDR), is a tyrosine kinase receptor for VEGFs that plays a central role in tumor angiogenesis; therefore, the inhibition of VEGFR2 is a promising therapeutic strategy for inhibiting angiogenesis and tumor growth.
as §4, §5

[5] = tested on: RPMI 1788 (B lymphocyte, human normal cells); assay: MTT assay on normal cells RPMI 1788; assay type: cell-based; conditions: MTT 48 h
Procedure: as §1
Human cell lines were obtained from the Institute of Cytology, Russian Academy of Sciences. The cell lines studied were maintained in RPMI 1640 medium (AppliChem, Darmstadt, Germany) supplemented with 20% (HL-60, RPMI 1788) fetal calf serum (HyClone, Cramlington, UK), in DMEM (A 549) and Eagle’s MEM (AppliChem) (MCF7, HeLa) with 10% fetal calf serum (HyClone). Cells were cultivated at 37 °C in a humidified atmosphere of 5% CO2. Cellular sensitivities to clofarabine and its lipid derivatives were measured with the MTT assay. Cells were plated in triplicate in 96-well plates (10^5 cells/well for suspended cell cultures and 5 × 10^3 cells/well for monolayer cultures); on the same day (suspended cell cultures) or on the following day (monolayer cultures), compounds were added at the appropriate dilutions. Plates were incubated under standard conditions for 48 h. Thereafter, 10 μL of MTT (Sigma) in phosphate-buffered saline (5 mg/mL) was added. The plates were incubated for an additional 4 h, and 150 μL of dimethyl sulfoxide (DMSO) was added to dissolve the formazan crystals. The optical density was read on a HALO MPR-95 Microplate Reader (Dynamica Scientific Ltd., Australia) at 570 nm. The antiproliferative effects were determined as degrees of inhibition of tumor cells (%).

PDGFRa = target: T7, PDGFRa (Homo sapiens, UniProt P16234); assay: ADP-Glo kinase inhibitory assay, PDGFRa; assay type: biochemical; conditions: read-out: % Inhibition at 10 nM, PDGFRa
T7 construct: purchased Promega
Procedure: as §3, §4, §5

IGF1R = target: T8, IGF1R (Homo sapiens, UniProt P08069); assay: ADP-Glo kinase inhibitory assay, IGF1R; assay type: biochemical; conditions: read-out: % Inhibition at 10 nM, IGF1R
T8 construct: purchased Promega
Procedure: as §3, §4, §5

Row | SMILES | IC50 [1] | melting point | inhibition at 0.01 µM (PDGFRb) | IC50 (A549 (lung carcinoma)) | inhibition at 0.01 µM (InsR) | IC50 [2] | inhibition at 0.01 µM (HER-2) | IC50 ([3]; Homo sapiens, HL-60, 48 h) | IC50 (HeLa (cervix carcinoma)) | inhibitory activity in relation to HER-4, in words (HER-4) | inhibition at 0.01 µM (HER-4) | IC50 [4] | inhibition at 0.01 µM (EGFR) | inhibition at 0.01 µM (KDR (VEGFR2)) | inhibition at 100 µM [5] | inhibition at 0.01 µM (PDGFRa) | inhibition at 0.01 µM (IGF1R) | selectivity for the gene insulin receptor, in words (InsR) | IC50 ([3]; 48 h)
1 | Cc1cn(-c2cc(NCc3ccc(C(=O)Nc4cccc(C(F)(F)F)c4)cc3)cc(C(F)(F)F)c2)cn1 [Compound 13, 4-({[3-(4-Methyl-1H-imidazol-1-yl)-5-(trifluoromethyl)phenyl]amino}methyl)-N-[3-(trifluoromethyl)phenyl]benzamide] | 69 µM | 129 to 131 °C | 8% | 55 µM | 0% | 5.6 µM | 34% | 46 µM | 57.5 µM | comparable to imatinib | 54% | 52 µM | 92% | 20% | 9.36% | 59% | 0% | – | –
2 | Cc1cn(-c2cc(NCc3ccc(C(=O)Nc4cc([N+](=O)[O-])ccc4C)cc3)cc(C(F)(F)F)c2)cn1 [Compound 15, 4-({[3-(4-Methyl-1H-imidazol-1-yl)-5-(trifluoromethyl)phenyl]amino}methyl)-N-{[(2-methyl-5-nitrophenyl) benzoate] | > 100 µM | 205 to 208 °C | 0% | 73 µM | 43% | 31 µM | 0% | 5.6 µM | 78.5 µM | – | 0% | > 100 µM | 0% | 0% | 15.9% | 0% | 0% | high selectivity | 5.8 µM
3 | CNC(=O)c1cc(Oc2ccc(NCc3ccc(C(=O)Nc4cc(-n5cnc(C)c5)cc(C(F)(F)F)c4)cc3)cc2)ccn1 [Compound 10, N-methyl-4-(4-((4-((3-(4-methyl-1H-imidazol-1-yl)-5-(trifluoromethyl)phenyl)carbamoyl)benzyl)amino)phenoxy)picolinamide] | > 100 µM | 153 to 156 °C | 0% | > 100 µM | 46% | 40 µM | 0% | 8.2 µM | > 100 µM | comparable to imatinib | 51% | 81 µM | 65% | 27% | 10.4% | 66% | 0% | – | –
4 | Cc1cn(-c2cc(NC(=O)c3ccc(CNc4cccc(C(F)(F)F)c4)cc3)cc(C(F)(F)F)c2)cn1 [Compound 11, N-(3-(4-methyl-1H-imidazol-1-yl)-5-(trifluoromethyl)phenyl)-4-(((3-(trifluoromethyl)phenyl)amino)methyl)benzamide] | 57 µM | 83 to 85 °C | 0% | 61 µM | 0% | 53 µM | 0% | 51 µM | 54 µM | comparable to imatinib | 49% | 54.3 µM | 91% | 16% | 15.5% | 55% | 0% | – | –
5 | COc1ccc(C(=O)N2CCN(Cc3ccc(C(=O)Nc4cc(-n5cnc(C)c5)cc(C(F)(F)F)c4)cc3)CC2)cc1 [Compound 28i, 4-{[4-(4-Methoxybenzoyl)piperazin-1-yl]methyl}-N-[3-(4-methyl-1H-imidazol-1-yl)-5-(trifluoromethyl)phenyl]benzamide] | 63 µM | 98 to 102 °C | 0% | > 100 µM | 52% | 30.7 µM | 0% | 38 µM | 11.5 µM | – | 0% | 78 µM | 0% | 0% | 6.32% | 0% | 3% | high selectivity | –

Reference: paper PMC6804006, “Synthesis, Biological Activities and Docking Studies of Novel 4-(Arylaminomethyl)benzamide Derivatives as Potential Tyrosine Kinase Inhibitors” (Molecules, 2019)
